Results taken from article PMC12143348, “Rapid and reversible fluorescent probe enables repeated snapshot imaging of AMPA receptors during synaptic plasticity” (Science Advances, 2025).
Where two headings read alike, the source gives them in different places.

Legend:
AMPARs = assay: Kinetics and reversibility of PFQX1(AF488) binding in cultured hippocampal neurons; design: species or system mouse; conditions: 100 nM probe
Description: A cloning ring (16 mm φ) was placed on the dish to accelerate the diffusion of the probe solution. After the dish was set on the stage, the cells were treated with 100 nM PFQX1(AF488) and imaged at specified time points by confocal microscopy.
For evaluating reversibility, stained cells were observed by confocal microscopy as the first image. Then, the cells were washed three times with Hepes-based ACSF and scanned as the wash image. After removal of the buffer, 100 nM PFQX1(AF488) was re-treated, and the cells were scanned as the second image. To quantify the fluorescence intensity of spines, the average signal intensity of ROIs set on spines was calculated by ZEN blue software after subtracting background fluorescence.

GluA3 (Y454A/R461G) = target: T1, GluA3 (Y454A/R461G) (Mus musculus, UniProt Q9Z2W9, R461G/Y454A); assay: Concentration-dependent binding of PFQX1(AF488), confocal live imaging of HEK293T cells expressing GluA3; conditions: n = 3, read-out: Kd / Affinity of PFQX1(AF488) to GluA3
T1 construct: expressed in transfected cells; host or cells: HEK293T
T1 sequence (Q9Z2W9 23-888 Y454A/R461G): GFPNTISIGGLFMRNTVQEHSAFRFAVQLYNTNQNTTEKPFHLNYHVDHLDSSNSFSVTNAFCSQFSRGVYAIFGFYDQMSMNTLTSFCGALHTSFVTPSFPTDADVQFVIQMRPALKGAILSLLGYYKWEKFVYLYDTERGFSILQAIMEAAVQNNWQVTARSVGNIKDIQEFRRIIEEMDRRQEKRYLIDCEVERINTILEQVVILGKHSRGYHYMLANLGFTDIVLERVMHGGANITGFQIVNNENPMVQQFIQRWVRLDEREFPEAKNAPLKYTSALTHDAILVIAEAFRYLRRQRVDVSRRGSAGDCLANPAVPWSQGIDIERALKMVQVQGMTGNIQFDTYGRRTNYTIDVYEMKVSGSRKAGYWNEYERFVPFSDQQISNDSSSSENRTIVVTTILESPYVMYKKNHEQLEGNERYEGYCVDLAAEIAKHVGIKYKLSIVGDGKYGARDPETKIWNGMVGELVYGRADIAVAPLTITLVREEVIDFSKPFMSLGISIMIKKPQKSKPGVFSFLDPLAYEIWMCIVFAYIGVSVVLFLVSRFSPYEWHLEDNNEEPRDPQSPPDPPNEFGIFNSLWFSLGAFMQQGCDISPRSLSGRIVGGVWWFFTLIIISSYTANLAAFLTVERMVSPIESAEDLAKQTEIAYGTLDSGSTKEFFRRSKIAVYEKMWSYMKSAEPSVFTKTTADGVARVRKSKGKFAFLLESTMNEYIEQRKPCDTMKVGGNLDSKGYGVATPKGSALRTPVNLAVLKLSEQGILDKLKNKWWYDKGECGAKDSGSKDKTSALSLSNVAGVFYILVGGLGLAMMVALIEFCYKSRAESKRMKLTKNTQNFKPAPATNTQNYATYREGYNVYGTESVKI
Description: (§1) HEK293T cells were cotransfected with plasmids for AMPAR [5′UTR-GluA1^flip(R)-3′UTR, GluA2^flip(Q)-3′UTR, GluA3^flip(Q) (Y454A/R461G), and GluA4^flip(Q)], kainate receptor [GluK2(Q)], auxiliary subunits, or the control vector and transfection marker (EFGP-F or mCherry-F). Fluorophore-ligand conjugates were diluted in Hepes-buffered saline (HBS) buffer [20 mM Hepes (pH 7.4), 107 mM NaCl, 6 mM KCl, 1.2 mM MgSO4, 2 mM CaCl2, and 11.5 mM glucose] and added to the cells. Confocal live imaging was performed with LSM900 (Carl Zeiss) equipped with a 63×, numerical aperture (NA) = 1.4 oil-immersion objective. Fluorescence images were acquired by excitation at 405, 488, 561, or 640 nm derived from diode lasers.
For evaluating the concentration dependency of fluorophore-ligand conjugates, 0.1 nM probe in HBS was added to the dish. Then, probes in HBS were added stepwise to the dish to a final concentration of 0.3, 1, 3, 10, 30, 100, 300, 1000, and 3000 nM. Cell surface fluorescence intensity was quantified from the line scans of transfection marker positive cells and calculated with subtraction of background by ZEN blue software (Carl Zeiss). The membrane intensity was fitted with KaleidaGraph (Synergy software) to calculate the equilibrium constant value using the following equation: a + (b − a)/(1 + (x/c)^d). The equilibrium constant is regarded as the Kd in this study.

native AMPARs = assay: Concentration-dependent binding of PFQX1(AF488) to AMPARs in primary cultured hippocampal neurons; design: species or system mouse; conditions: for Kd: n = 3
Description: We modified the Banker’s culture method of hippocampal neurons ([59]). Glass-bottom dishes (14 mm φ, Matsunami) were coated with poly-D-lysine (Sigma-Aldrich) and washed three times with sterile dH2O. Hippocampi from 16-day-old ICR mouse embryos were aseptically dissected and digested with 0.25% (w/v) trypsin (Nacalai Tesque) for 20 min at 37°C. The cells were resuspended in Neurobasal Plus medium supplemented with 10% FBS, 1 mM GlutaMAX I (Invitrogen), penicillin (100 U/ml), and streptomycin (100 μg/ml) and filtered by Cell Strainer (100 μm, Falcon) followed by centrifugation at 1000 rpm for 5 min. The cells were resuspended in Neurobasal Plus medium supplemented with 2% of B-27 Plus Supplement, 1 mM GlutaMAX I (Invitrogen), penicillin (100 U/ml), and streptomycin (100 μg/ml) and plated at a density of 2 × 10^4 cells on glass-bottom dishes. Precultured cortical astrocytes on glass coverslips (13 mm φ) were transferred to the dishes so that astrocytes were faced to neurons. The cultures were maintained at 37°C in a 95% air and 5% CO2 humidified incubator. The culture medium was replaced every 7 days, and the neurons were used at 16 to 18 days in vitro (DIV).
Calcein Red AM (50 nM; AAT Bioquest) was added to the cultured neurons for 30 min at 37°C to visualize the intracellular region. The cells were washed with Hepes-based ACSF [25 mM Hepes (pH 7.4), 140 mM NaCl, 5 mM KCl, 1.3 mM CaCl2, 2 mM MgCl2, and 33 mM glucose], and 100 nM PFQX1(AF488) in Hepes-based ACSF was added to the dish.
For evaluating the concentration dependency of PFQX1(AF488), the cells were treated with 1 nM PFQX1(AF488). Then, PFQX1(AF488) in Hepes-based ACSF was added stepwise to the dish to a final concentration of 3, 10, 30, 100, 300, and 1000 nM. To quantify the concentration dependency after cLTP, the procedure described above was conducted after cLTP stimulation as described in the section “cLTP and quantification of cell-surface AMPARs.” The average intensity of ROIs set on spines was calculated by ZEN blue software after subtracting background fluorescence. The intensity was fitted with KaleidaGraph to calculate the equilibrium constant value using the following equation: a + (b − a)/(1 + (x/c)^d). The equilibrium constant is regarded as the Kd in this study.

GluK2(Q) = target: T2, GluK2(Q) (Rattus norvegicus, UniProt P42260); assay: Confocal live imaging of HEK293T cells expressing GluK2(Q) treated with PFQX1(AF488); assay type: binding; conditions: even at high concentration (300 nM)
T2 construct: expressed in transfected cells; host or cells: HEK293T
T2 sequence (P42260 32-908): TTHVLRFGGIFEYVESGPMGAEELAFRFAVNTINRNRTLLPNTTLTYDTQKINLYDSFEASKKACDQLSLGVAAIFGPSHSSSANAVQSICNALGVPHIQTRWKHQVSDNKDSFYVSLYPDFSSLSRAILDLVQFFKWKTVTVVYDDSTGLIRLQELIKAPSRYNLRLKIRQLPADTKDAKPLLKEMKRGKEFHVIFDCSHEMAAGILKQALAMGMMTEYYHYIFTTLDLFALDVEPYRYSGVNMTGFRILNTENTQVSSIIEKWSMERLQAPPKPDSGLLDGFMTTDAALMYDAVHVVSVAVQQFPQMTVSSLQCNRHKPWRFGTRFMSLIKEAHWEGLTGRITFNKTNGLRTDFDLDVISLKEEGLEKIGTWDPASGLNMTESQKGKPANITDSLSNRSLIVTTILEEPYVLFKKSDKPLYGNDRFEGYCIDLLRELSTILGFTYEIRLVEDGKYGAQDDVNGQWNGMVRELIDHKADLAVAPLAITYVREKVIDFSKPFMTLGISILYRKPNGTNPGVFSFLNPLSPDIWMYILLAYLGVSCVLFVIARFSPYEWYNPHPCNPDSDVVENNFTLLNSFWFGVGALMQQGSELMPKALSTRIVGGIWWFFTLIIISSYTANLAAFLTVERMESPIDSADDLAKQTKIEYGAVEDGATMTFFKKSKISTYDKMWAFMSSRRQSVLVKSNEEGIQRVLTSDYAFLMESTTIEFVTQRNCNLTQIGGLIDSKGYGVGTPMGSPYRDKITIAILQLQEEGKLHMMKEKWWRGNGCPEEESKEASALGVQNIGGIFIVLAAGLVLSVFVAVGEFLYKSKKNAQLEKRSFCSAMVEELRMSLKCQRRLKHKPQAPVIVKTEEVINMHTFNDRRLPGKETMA
Description: as §1
Anti-HA mCherry-F Merge1.0
Fig. S8. Sub-micromolar concentrations of PFQX1(AF488) fail to visualize cell surface kainate receptors in HEK293T cells. (A) HA-tag staining of GluK2(Q).
GluK2(Q) expressing cells were treated with anti-HA antibody (Alexa Fluor 647 conjugate) for 15 min. Scale bar, 10 µm. (B) Fluorescence Ca2+ assay to analyze the inhibition of 100 µM kainic acid-induced response by PFQX-amine. HEK293T cells were transfected with GluK2(Q). The intensity was normalized to that at 0.1 µM PFQX-amine (n = 3). (C) Representative results of confocal live cell imaging of HEK293T cells expressing GluK2(Q) are shown. mCherry-F was used as a transfection marker. […]

In the case of `N=c1ccc2c(-c3ccc(C(=O)NCc4ccn(-c5cc6c(cc5C(F)(F)F)[nH]c(=O)c(=O)n6CC(=O)O)c4)cc3C(=O)O)c3ccc(N)c(S(=O)(=O)O)c3oc-2c1S(=O)(=O)O` [PFQX1(AF488)], the “reversibility of binding (medium exchange)” value (AMPARs) is reported as “easily removed by medium exchange”, the “time to saturation of fluorescent signals after probe addition” value (AMPARs) is reported as 10 s and the Kd (GluA3 (Y454A/R461G)) is reported as 30.6 ± 7 nM. For the same molecule, the “fraction of AMPARs bound / suppressed by the probe” value (native AMPARs; 10 nM probe, from Fig. 4C) was “less than 10%”, the Kd (native AMPARs; cultured hippocampal neurons after cLTP stimulation, read-out: Kd value after cLTP) was 72.4 ± 17.4 nM and the Kd (native AMPARs; primary cultured hippocampal neurons, spine fluorescence, read-out: Kd / Affinity to native AMPARs) was 97.5 ± 9.9 nM. For the same molecule, the “visualization of GluK2” value (GluK2(Q)) was “failed to visualize GluK2”.
